Data on two molecules can be found in US4055553A, “(Gly3 -Ala)^1 -somatostatin” (American Home Products Corporation, priority 1975, dated 1977).

In one experiment the test system is growth hormone. As to the kind of experiment: arginine-stimulated hormone release in Nembutal-anaesthetised rats, blood assayed for growth hormone. Type of experiment: in vivo, albino male rats. The note with it: saline control 133 ± 15. How it is done:
(§1) The in vivo activity of the compounds of this invention was established by subjecting (Gly3 -Ala)^1 -Somatostatin, as a representative compound of this invention, to the following standard test procedure: three groups of nine albino male rats were arranged to provide a control group, a group for observation of Somatostatin activity as the standard and a group for the study of the test compound (Gly3 -Ala)^1 -Somatostatin. Nembutal (50 mg/kg) was injected intraperitoneally into each rat. Fifteen minutes later a subcutaneous injection of the test compound, somatostatin (200 μg/kg) and physiological saline was administered separately to each of the three groups of rats. Ten minutes later 0.5 milliliters of arginine (300 mg/ml, pH 7.2) was injected into the rats heart. The rats were decapitated five minutes later and their blood was collected in Trasylol® -EDTA. Aliquot samples were assayed for growth hormone, glucagon and/or insulin. The compound of this invention, selected as representative of the group of compounds disclosed for test pruposes, was employed in two distinct test procedures at the 100 μg/kg and 300 μg/kg dose levels.

The test system of another experiment is insulin. As to the kind of experiment: arginine-stimulated hormone release in Nembutal-anaesthetised rats, blood assayed for insulin. It is filed as in vivo, albino male rats. How it is done: as §1
The test system of another experiment is glucagon. As to the kind of experiment: arginine-stimulated hormone release in Nembutal-anaesthetised rats, blood assayed for glucagon. Type of experiment: in vivo, albino male rats. How it is done:
as §1

In experiment [1] the test system is growth hormone, glucagon and/or insulin. Kind of experiment: standard in vivo test procedure, overall activity compared with somatostatin. Also on record: species or system albino male rats. The note with it: at the 100 and 300 μg/kg dose levels. The protocol: as §1

As to `C[C@H](NC(=O)CNC(=O)CNC(=O)CN)C(=O)NCC(=O)N[C@H]1CSSC[C@@H](C(=O)O)NC(=O)[C@H](CO)NC(=O)[C@H]([C@@H](C)O)NC(=O)[C@H](Cc2ccccc2)NC(=O)[C@H]([C@@H](C)O)NC(=O)[C@H](CCCCN)NC(=O)[C@H](Cc2c[nH]c3ccccc23)NC(=O)[C@H](Cc2ccccc2)NC(=O)[C@H](Cc2ccccc2)NC(=O)[C@H](CC(N)=O)NC(=O)[C@H](CCCCN)NC1=O` [(Gly3 -Ala)^1 -Somatostatin, glycyl-glycyl-glycyl-L-alanylglycyl-L-cysteinyl-L-lysyl-L-asparaginyl-L-phenylalanyl-L-phenylalanyl-L-tryptophyl-L-lysyl-L-threonyl-L-phenylalanyl-L- threonyl-L-seryl-L-cysteine cyclic (6→.intg.) disulfide, triacetate], in the experiment with growth hormone (second test, test compound 300 μg/kg subcutaneous), the GH was 27 ± 7 ng/mL. In addition, the Insulin in the experiment with insulin (first test, test compound 100 μg/kg subcutaneous, arginine intracardiac 10 min later, blood 5 min after arginine, saline control 199 ± 15) worked out at 130 ± 14 μ units/ml; with insulin (second test, test compound 300 μg/kg subcutaneous, saline control 165 ± 13) it was 104 ± 10 μ units/ml. For the same molecule, the Glucagon in the experiment on glucagon (first test, test compound 100 μg/kg subcutaneous, arginine intracardiac 10 min later, blood 5 min after arginine, saline control 6.4 ± 1.5) stood at 0.5 ± 0.1 picograms/ml; with glucagon (second test, test compound 300 μg/kg subcutaneous, saline control 4.2 ± 0.6) it was 1.4 ± 0.7 picograms/ml. Also, in experiment [1], the “activity relative to somatostatin itself” value is recorded as “comparable in activity”.

In the experiment on growth hormone (second test (run beside the 300 μg/kg group), somatostatin standard 200 μg/kg subcutaneous), `C[C@H](N)C(=O)NCC(=O)N[C@H]1CSSC[C@@H](C(=O)O)NC(=O)[C@H](CO)NC(=O)[C@H]([C@@H](C)O)NC(=O)[C@H](Cc2ccccc2)NC(=O)[C@H]([C@@H](C)O)NC(=O)[C@H](CCCCN)NC(=O)[C@H](Cc2c[nH]c3ccccc23)NC(=O)[C@H](Cc2ccccc2)NC(=O)[C@H](Cc2ccccc2)NC(=O)[C@H](CC(N)=O)NC(=O)[C@H](CCCCN)NC1=O` [Somatostatin] gave a GH of 12 ± 2 ng/mL. For the same molecule, the Insulin with insulin (first test (run beside the 100 μg/kg group), somatostatin standard 200 μg/kg subcutaneous, saline control 199 ± 15) is given as 202 ± 29 μ units/ml; in the experiment on insulin (second test (run beside the 300 μg/kg group), somatostatin standard 200 μg/kg subcutaneous, saline control 165 ± 13) it was 115 ± 11 μ units/ml. Besides, the Glucagon is listed as 1.5 ± 0.8 picograms/ml with glucagon (first test (run beside the 100 μg/kg group), somatostatin standard 200 μg/kg subcutaneous, saline control 6.4 ± 1.5) and 1.6 ± 0.9 picograms/ml with glucagon (second test (run beside the 300 μg/kg group), somatostatin standard 200 μg/kg subcutaneous, saline control 4.2 ± 0.6).
